Data on 9 compounds can be found in article PMC4610172, “5-Arylaminouracil Derivatives as Potential Dual-Action Agents” (Acta Naturae, 2015).

The test system of data set [1] is Mycobacterium tuberculosis. On the set-up: method as in PMID 26061192. As to conditions: cited from earlier work.
For data set [2], the target named is T1, HIV-1 reverse transcriptase (p66/p51 heterodimer) (Human immunodeficiency virus type 1 group M subtype B, UniProt P04585).
T1 construct: recombinant HIV-1 reverse transcriptase (p66/p51 heterodimer); made in house
The data set can be described thus: Inhibition of recombinant HIV-1 reverse transcriptase (Dixon's method, noncompetitive). It counts as biochemical. As to conditions: Dixon's method for noncompetitive inhibitors; read-out: Ki (inhibition constant). How it is done: Isolation of recombinant HIV-1 reverse transcriptase (p66/p51 heterodimer) and determination of its activity were performed as described earlier. The inhibition constant (Ki), calculated according to Dixon’s method for noncompetitive inhibitors, was used as a quantitative measure of the inhibitory activity of the compounds. Nevirapine, a first-generation HIV NNRTI, was used as a control.

Data set [3] relates to MT-4 cell line. The data set can be described thus: Cytotoxicity in vitro in MT-4 cells (propidium iodide uptake, automatic cell counter). As to conditions: highest concentration tested. It counts as cell-based. Here is the method: We tested the compounds for potential cytotoxicity in the MT-4 cell line using an automatic cell counter (ChemoMetec). The number of live and dead cells was counted in the control cultures, and the cultures were treated with compound (6), (7), or (19). Compounds (6) and (7) were tested at concentrations of 0.136–33 μM (0.035–9 μg/mL), and compound (19) was tested at concentrations of 0.272–66 μM (0.119–28 μg/mL).
We discriminated live from dead cells by evaluating propidium iodide uptake according to the manufacturer’s instructions. We collected and analyzed data using the Nucleoview software (version 1.0,ChemoMetec).

Data set [4] deals with human tonsillar tissue. Briefly: Toxicity ex vivo in human tonsillar tissue (flow cytometry of cell phenotypes). It counts as cell-based. As to conditions: 12 days culture. How it is done:
The cytotoxicity of compounds (6), (7), and (19) was determined in human tonsillar tissues. A total of 27 tissue blocks were incubated with compound (19) (20 μg/mL) or with compound (6) or (7) ( 5 μg/mL) for each experimental point. Tissue blocks were cultured for 12 days. Then, the cells were isolated from the control and treated and stained with combinations of fluorescence- labeled antibodies against CD3-QD605, CD4- QD655, CD8-QD705, CD25-APC, CD38-PE, HLA-DRAPC- Cy7, CXCR4-Brilliant violet 421, CCR5-PR-Cy5 CD45RA-FITC, and CCR7-PE-Cy7 (Caltag Laboratories; Biolegend). We determined the numbers of cells of different phenotypes in isolated suspensions using flow cytometry as previously described. The volume of an analyzed suspension was controlled by means of Trucount beads (Becton Dickinson); the number of counted cells was normalized to the weight of the tissue fragments used for cell isolation.

pKi: −log10 of the molar value.

On to `Cc1ccc(Nc2c[nH]c(=O)[nH]c2=O)cc1` [Compound 3], for which the “Concentration of total inhibition of mycobacterium growth” value in data set [1] was 5 to 40 µg/mL.

As for `O=c1[nH]c(=O)n(C2C=CC(O)C2)cc1Nc1ccc(Oc2ccccc2)cc1` (stereo not drawn) [Compound 15], the pKi (commonly the negative decadic logarithm of the Ki, by convention in mol/L) in data set [2] is 3.92. On to `CCCCOc1ccc(Nc2cn(C3C=CC(O)C3)c(=O)n(C3C=CC(O)C3)c2=O)cc1` (stereo not drawn) [Compound 19], for which, in data set [3], the “Maximum concentration at which neither cytotoxic nor cytostatic effect was observed” value (“Maximum concentration” below) was at least 66 µM. Further, the “Cytotoxicity on different cell types in the tissue (T, B, CD4+, CD8+ and CD4+ subgroups)” value (“Cytotoxicity on different cell types” for short) in data set [4] (20 μg/mL) was “lack of significant death rates”. For the same compound, the “Concentration of total inhibition of mycobacterium growth” value in data set [1] was 5 to 40 µg/mL. For `Cc1cccc(Nc2c[nH]c(=O)[nH]c2=O)c1` [Compound 2], the “Concentration of total inhibition of mycobacterium growth” value in data set [1] is 5 to 40 µg/mL. As to `Cc1ccc(Nc2cn(C3C=CC(O)C3)c(=O)n(Cc3ccccc3)c2=O)cc1` (stereo not drawn) [Compound 22, 1-(4’-Hydroxy-2’-cyclopenten-1’-yl)-3-benzyl-5-(p-methylphenylamino) uracil], the pKi in data set [2] is 4.22. The same measure, in the same setting: the same measure for `O=c1c(Nc2ccccc2)cn(C2C=CC(O)C2)c(=O)n1Cc1ccccc1` (stereo not drawn) [Compound 21, 1-(4’-Hydroxy-2’-cyclopenten-1’-yl)-3-benzyl-5-(phenylamino) uracil]: under 4.00. For the compound `CCCCOc1ccc(Nc2c[nH]c(=O)[nH]c2=O)cc1` [Compound 7], the “Maximum concentration” value in data set [3] is at least 33 µM. Moreover, the “Cytotoxicity on different cell types” value in data set [4] (5 μg/mL) is listed as “lack of significant death rates”. Besides, the “Concentration of total inhibition of mycobacterium growth” value in data set [1] is 5 to 40 µg/mL. Regarding `CCCCc1ccc(Nc2c[nH]c(=O)[nH]c2=O)cc1` [Compound 6], the “Maximum concentration” value in data set [3] was at least 33 µM. For the same compound, the “Cytotoxicity on different cell types” value in data set [4] (5 μg/mL) is “lack of significant death rates”. Further, the “Concentration of total inhibition of mycobacterium growth” value in data set [1] is 5 to 40 µg/mL.

As to `CCCCc1ccc(Nc2n[nH]c(=O)[nH]c2=O)cc1` [Compound 10], the “Concentration of total inhibition of mycobacterium growth” value in data set [1] was 5 to 40 µg/mL.
